Assay results from patent US20230404887A1, “COMPOSITIONS TO LIMIT OR ELIMINATE THE PERCEPTION OF SWEAT MALODOR” (Firmenich SA, priority 2020, published 2023).

Key:
[1] = Expert perfumer evaluation of malodor reduction, dynamic olfactometer, against 3M2HA; parameters: species or system human; settings: for EFFECTIVE CONCENTRATION: MO 3M2HA held fixed at mid-intensity (0.5), headspace concentration providing an effective level; for EXPERT RATING: MO 3M2HA held fixed at mid-intensity (0.5 on scale 0-1), rating of degree of malodor reduction at the effective concentration
Method: (§1) The effectiveness of perfuming materials in compositions to reduce the perception of, for example, axillary sweat malodors, was evaluated by an expert perfumer by 1) selecting target axillary malodor components, 2) delivering target malodor components and candidate malodor reducing materials to the nose of an expert perfumer at carefully controlled concentrations, 3) having the expert perfumer identify the concentration at which malodor reduction was obtained, and 4) rating the degree of reduction achieved at the concentration identified in step 3.
(§2) In this method, a dynamic multi-channel olfactometer was used to precisely deliver known gas phase concentrations of the test materials, using forced evaporation, into a stream of air emanating from a smelling port. The appropriate concentration of the malodor component was established prior to its being mixed with the candidate malodor reducing substance. The concentration was set at a concentration sufficient to produce an intensity of 0.5 (mid-intensity) on a scale of 0-1. The expert perfumer then dynamically adjusted the concentration of the candidate malodor reducing substance to determine the effective concentration, while maintaining a fixed concentration of the malodor component. Once the appropriate concentration had been determined, the expert perfumer evaluated the perception of the mixtures repeatedly over a period of several minutes, taking breaks in between sniffs to avoid adaptation to the components being tested, before providing a rating.
(§3) Tests were performed in a forced-evaporation, dynamic olfactometer, with malodor component concentrations held fixed at a mid-intensity. Ratings of effectiveness were based in the following scale: −2 (significant increase in malodor), −1 (slight increase in malodor), 0 (no effect), 1 (slight malodor reduction), 2 (good malodor reduction), 3 (complete malodor reduction). The malodor (MO) component abbreviations are 3H3MHA (3-methyl-3-hydroxyhexanoic acid), 3M2HA (3-methyl-2-hexenoic acid), 3M3SH (3-methyl-3-sulphanylhexanol).

[2] = Expert perfumer evaluation of malodor reduction, dynamic olfactometer, against 3M3SH; parameters: species or system human; settings: for EFFECTIVE CONCENTRATION: MO 3M3SH held fixed at mid-intensity (0.5), headspace concentration providing an effective level; for EXPERT RATING: MO 3M3SH held fixed at mid-intensity (0.5 on scale 0-1), rating of degree of malodor reduction at the effective concentration
Method: as §1, §2, §3

Molecule	EFFECTIVE CONCENTRATION [1]	EXPERT RATING [1]	EFFECTIVE CONCENTRATION [2]	EXPERT RATING [2]
CC(=O)/C=C/C1=C(C)CCCC1(C)C	5.83E−02 micrograms/L AIR	3	1.17E−01 micrograms/L AIR	3
3-(2/4-ETHYLPHENYL)-2,2-DIMETHYLPROPANAL	3.67E−01 micrograms/L AIR	3	7.33E−01 micrograms/L AIR	2
CCCCCC1(C)CCC(C)(C)C1=O (racemic)	1.22E+00 micrograms/L AIR	2		
CCC(C)CCCC(C)(C)O (racemic)	5.40E+00 micrograms/L AIR	2	1.08E+01 micrograms/L AIR	2
C=CC(C)CCCC(C)(C)O (racemic)	4.33E+00 micrograms/L AIR	2		
CCC(C)(O)CCCC(C)C (racemic)	9.27E+00 micrograms/L AIR	2		
CC(C)=C[C@H]1C[C@@H](C)CCO1 (racemic) [(2RS,4SR)-4-METHYL-2-(2-METHYL-1-PROPEN-1-YL)TETRAHYDRO-2H-PYRAN]	6.83E−01 micrograms/L AIR	2	6.83E−01 micrograms/L AIR	1
C[C@H]1CCO[C@@H](c2ccccc2)C1 (racemic) [(2RS,4SR)-4-METHYL-2-PHENYLTETRAHYDRO-2H-PYRAN]			2.67E−01 micrograms/L AIR	3
CC1(C)CCC[C@]2(C)[C@H]3CCO[C@]3(C)CC[C@@H]12 (racemic) [(3aRS,5aSR,9aSR,9bRS)-3a,6,6,9a-TETRAMETHYLDODECAHYDRONAPHTHO[2,1-b]FURAN]	4.33E−03 micrograms/L AIR	3	2.17E−03 micrograms/L AIR	3
CC(=O)OC(C)(C)C1CC=C(C)CC1 (racemic) [(+−)-2-(4-METHYL-3-CYCLOHEXEN-1-YL)-2-PROPANYL ACETATE]	1.08E+00 micrograms/L AIR	3	1.08E+00 micrograms/L AIR	3
CCCCCCCCCC(C)C=O (racemic) [(+−)-2-METHYLUNDECANAL]	2.33E−03 micrograms/L AIR	2		
CCC(C)c1ccc2ncccc2c1 (racemic) [(+−)-6-SEC-BUTYLQUINOLINE]			1.83E−02 micrograms/L AIR	3
CC1C/C=C/CCCCCCCCCC(=O)C1 (racemic) [(+−)-(5E)-3-METHYL-5-CYCLOPENTADECEN-1-ONE]	2.33E−01 micrograms/L AIR	2	5.83E−01 micrograms/L AIR	1
C=CC(C)(CC/C=C(\C)CC)OC(C)=O (racemic) [(+−)-(6E)-3,7-dimethyl-1,6-nonadien-3-yl acetate]			6.67E+00 micrograms/L AIR	2
CC/C=C(\C)C(O)CCCCC (racemic) [(+−)-(E)-4-METHYL-3-DECEN-5-OL]	2.13E−01 micrograms/L AIR	3	4.27E−01 micrograms/L AIR	3
O=c1ccc2ccccc2o1 [2-CHROMENONE]	9.83E−03 micrograms/L AIR	3	7.87E−02 micrograms/L AIR	3
CCc1occc(=O)c1O [2-ETHYL-3-HYDROXY-4(4H)-PYRANONE]	1.83E−02 micrograms/L AIR	3	1.83E−02 micrograms/L AIR	2

Molecule	EFFECTIVE CONCENTRATION [1]	EXPERT RATING [1]	EFFECTIVE CONCENTRATION [2]	EXPERT RATING [2]
COc1ccc2ccccc2c1 [2-METHOXYNAPHTHALENE]	1.25E−02 micrograms/L AIR	3	5.00E−02 micrograms/L AIR	3
OCCc1ccccc1 [2-PHENYLETHANOL]	5.42E−01 micrograms/L AIR	3	1.08E+00 micrograms/L AIR	2
O=CCCc1ccccc1 [3-PHENYLPROPANAL]	2.60E+00 micrograms/L AIR	3	2.60E+00 micrograms/L AIR	3
CC(=O)CCc1ccc(O)cc1 [4-(4-HYDROXYPHENYL)-2-BUTANONE]	1.50E−04 micrograms/L AIR	3	6.00E−04 micrograms/L AIR	1
COc1ccc(C=O)cc1 [4-METHOXYBENZALDEHYDE]	6.83E−02 micrograms/L AIR	2		
COc1ccc(COC(C)=O)cc1 [4-METHOXYBENZYL ACETATE]	1.18E+00 micrograms/L AIR	3	2.37E+00 micrograms/L AIR	2
CC(=O)CCc1ccccc1 [4-PHENYL-2-BUTANONE]	7.50E−01 micrograms/L AIR	3	3.75E−01 micrograms/L AIR	2
C=CCCCCCCCCC=O [10-UNDECENAL]	9.50E−03 micrograms/L AIR	3	9.50E−02 micrograms/L AIR	2
COC(Cc1ccccc1)OC [(2,2-DIMETHOXYETHYL)BENZENE]	3.92E+00 micrograms/L AIR	3	3.92E+00 micrograms/L AIR	2
OC/C=C/c1ccccc1 [(2E)-3-PHENYL-2-PROPEN-1-OL]			6.50E−02 micrograms/L AIR	2
CCCCCCC/C=C\CCC=O [(4Z)-4-DODECENAL]	1.03E−04 micrograms/L AIR	2	2.07E−04 micrograms/L AIR	1
O=C1CCCCCCC/C=C/CCCCCCO1 [(10E)-OXACYCLOHEPTADEC-10-EN-2-ONE]	7.17E−02 micrograms/L AIR	2	2.87E−01 micrograms/L AIR	2
C=CCOC(=O)CCCCCC [ALLYL HEPTANOATE]	4.13E+00 micrograms/L AIR	3		
C=CCOC(=O)CCCCC [ALLYL HEXANOATE]	1.06E+00 micrograms/L AIR	3	2.12E+00 micrograms/L AIR	3
CCCCCCCCCC=O [DECANAL]	5.00E−01 micrograms/L AIR	3	2.50E−01 micrograms/L AIR	2
CCOC(=O)CC1(C)OCCO1 [ETHYL 2-METHYL-1,3-DIOXOLANE-2-ACETATE]	7.07E+00 micrograms/L AIR	2		
CCCCCOC(=O)c1ccccc1O [PENTYL 2-HYDROXYBENZOATE]			5.00E−01 micrograms/L AIR	3
